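Interpolation was linear, between the two tested concentrations surrounding the appropriate level; five concentrations were tested over 48 hours in 96-well plates. Abbreviation: GI50, concentration required for 50% inhibition of growth. At the TGI there is no net growth.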
How the values were obtained:
Test in all cases: NCI anticancer screen, dose series, 48 h
[1] = test system: T-47D breast
[2] = test system: HS 578T breast
[3] = test system: M14 melanoma
[4] = test system: SK-MEL-28 melanoma
[5] = test system: MCF7 breast
[6] = test system: TK-10 renal
[7] = test system: NCI-H460 lung
[8] = test system: A498 renal
[9] = test system: SR leukemia
[10] = test system: RXF 393 renal

| SMILES | GI50 [1] [µM] | TGI [1] [µM] | GI50 [2] [µM] | TGI [2] [µM] | GI50 [3] [µM] | TGI [3] [µM] | GI50 [4] [µM] | TGI [4] [µM] | GI50 [5] [µM] | TGI [5] [µM] | GI50 [6] [µM] | TGI [6] [µM] | GI50 [7] [µM] | TGI [7] [µM] | GI50 [8] [µM] | TGI [8] [µM] | GI50 [9] [µM] | TGI [9] [µM] | GI50 [10] [µM] | TGI [10] [µM] |
| --- | --- | --- | --- | --- | --- | --- | --- | --- | --- | --- | --- | --- | --- | --- | --- | --- | --- | --- | --- | --- |
| O=S(=O)(Cc1ccc(Cl)cc1Cl)c1ccc(Cl)cc1 | 6.02 | > 100 | 0.729 | > 100 | 0.5 | 48.2 | 1.97 | > 100 | 0.341 | > 100 | 1.01 | > 53.9 | 0.401 | 30 | 0.317 | 16.3 | 0.296 | 11 | 1.4 | 7.55 |
| Cc1cc(Cl)cc2c(N=Nc3ccccc3[N+](=O)[O-])c(O)[nH]c12 |  | > 100 |  | > 100 |  | > 100 |  | > 100 |  | > 100 |  | > 100 |  | > 100 |  | > 100 |  | 82.3 |  | > 100 |
| C/C=C/C/C=C/CCC(=O)[C@H]1O[C@H]1C(N)=O | 13.7 | 34 | 15.9 | > 100 | 13.3 | 30 |  | 28.3 | 12.6 | 26.1 | 16.5 | 30.5 | 17 | 39.4 | 17.4 | 43.7 | 12.6 | > 100 | 5.07 | 19.1 |

— PubChem BioAssay (NCI)
